Results on nine compounds are retold here after ChEMBL document CHEMBL4130529, “From PIM1 to PI3Kδ via GSK3β: Target Hopping through the Kinome” (ACS Med Chem Lett, 2017).

The target of assay [1] is Phosphatidylinositol 4,5-bisphosphate 3-kinase catalytic subunit alpha isoform (Homo sapiens, UniProt P42336). Kind of assay: Inhibition of PI3Kalpha (unknown origin) using PIP2 as substrate pretreated for 15 mins followed by substrate addition measured after 1 hr.
Assay [2] has as its target Phosphatidylinositol 4,5-bisphosphate 3-kinase catalytic subunit beta isoform (Homo sapiens, UniProt P42338). Kind of assay: Inhibition of PI3Kbeta (unknown origin) using PIP2 as substrate pretreated for 15 mins followed by substrate addition measured after 1 hr.
The target in assay [3] is T1, Glycogen synthase kinase-3 beta (Homo sapiens, UniProt P49841). Briefly: Inhibition of GSK3beta (unknown origin) after 1 hr by fluorescence polarization assay. On the technique in general: Fluorescence polarisation rises when a labelled molecule tumbles more slowly, as on binding a larger partner.
T1 sequence (P49841 whole entry, canonical isoform): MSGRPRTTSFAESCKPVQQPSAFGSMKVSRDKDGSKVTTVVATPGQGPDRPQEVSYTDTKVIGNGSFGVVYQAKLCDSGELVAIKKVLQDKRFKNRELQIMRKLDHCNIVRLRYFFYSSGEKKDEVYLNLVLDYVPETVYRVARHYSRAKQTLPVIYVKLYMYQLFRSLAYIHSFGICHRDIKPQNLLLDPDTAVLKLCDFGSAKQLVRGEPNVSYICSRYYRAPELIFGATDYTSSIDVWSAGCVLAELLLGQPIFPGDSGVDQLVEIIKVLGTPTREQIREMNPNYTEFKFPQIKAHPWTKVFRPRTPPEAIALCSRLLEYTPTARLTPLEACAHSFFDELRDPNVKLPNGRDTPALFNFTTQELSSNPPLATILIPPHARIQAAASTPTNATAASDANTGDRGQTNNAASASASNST
In assay [4] the target is Phosphatidylinositol 4,5-bisphosphate 3-kinase catalytic subunit gamma isoform (Homo sapiens, UniProt P48736). Briefly: Inhibition of PI3Kgamma (unknown origin) using PIP2 as substrate pretreated for 15 mins followed by substrate addition measured after 1 hr.
Phosphatidylinositol 4,5-bisphosphate 3-kinase catalytic subunit gamma isoform, sequence (P48736 whole entry, canonical isoform): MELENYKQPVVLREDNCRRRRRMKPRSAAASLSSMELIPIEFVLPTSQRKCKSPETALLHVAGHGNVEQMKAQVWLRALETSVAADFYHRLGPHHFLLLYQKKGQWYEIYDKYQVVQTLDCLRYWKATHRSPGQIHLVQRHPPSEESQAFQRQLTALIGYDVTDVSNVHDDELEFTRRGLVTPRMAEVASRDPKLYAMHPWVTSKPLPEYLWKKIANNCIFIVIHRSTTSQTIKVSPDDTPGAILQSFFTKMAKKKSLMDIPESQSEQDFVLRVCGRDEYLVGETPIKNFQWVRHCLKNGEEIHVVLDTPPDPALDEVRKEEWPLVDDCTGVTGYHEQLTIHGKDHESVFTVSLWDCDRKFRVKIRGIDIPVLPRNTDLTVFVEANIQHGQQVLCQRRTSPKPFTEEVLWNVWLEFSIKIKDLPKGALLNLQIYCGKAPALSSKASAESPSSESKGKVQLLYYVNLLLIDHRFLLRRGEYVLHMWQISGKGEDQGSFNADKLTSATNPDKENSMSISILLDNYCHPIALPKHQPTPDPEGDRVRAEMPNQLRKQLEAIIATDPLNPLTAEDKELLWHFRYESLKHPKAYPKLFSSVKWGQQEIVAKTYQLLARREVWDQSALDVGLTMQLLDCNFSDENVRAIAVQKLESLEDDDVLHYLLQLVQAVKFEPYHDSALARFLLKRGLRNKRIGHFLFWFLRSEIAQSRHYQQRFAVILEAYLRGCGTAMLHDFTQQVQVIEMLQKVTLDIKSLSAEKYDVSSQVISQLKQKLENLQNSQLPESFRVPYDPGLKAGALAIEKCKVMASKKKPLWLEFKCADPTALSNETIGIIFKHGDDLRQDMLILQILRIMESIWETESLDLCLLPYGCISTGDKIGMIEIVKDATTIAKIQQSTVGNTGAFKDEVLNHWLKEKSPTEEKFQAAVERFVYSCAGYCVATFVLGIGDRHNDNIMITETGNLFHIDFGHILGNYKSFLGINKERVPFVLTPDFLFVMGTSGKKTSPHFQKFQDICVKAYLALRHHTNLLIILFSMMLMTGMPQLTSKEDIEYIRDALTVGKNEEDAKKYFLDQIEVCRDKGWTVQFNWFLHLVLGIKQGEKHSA
The target of assay [5] is T2, Phosphatidylinositol 4,5-bisphosphate 3-kinase catalytic subunit delta isoform (Homo sapiens, UniProt O00329).
T2 sequence (O00329 whole entry): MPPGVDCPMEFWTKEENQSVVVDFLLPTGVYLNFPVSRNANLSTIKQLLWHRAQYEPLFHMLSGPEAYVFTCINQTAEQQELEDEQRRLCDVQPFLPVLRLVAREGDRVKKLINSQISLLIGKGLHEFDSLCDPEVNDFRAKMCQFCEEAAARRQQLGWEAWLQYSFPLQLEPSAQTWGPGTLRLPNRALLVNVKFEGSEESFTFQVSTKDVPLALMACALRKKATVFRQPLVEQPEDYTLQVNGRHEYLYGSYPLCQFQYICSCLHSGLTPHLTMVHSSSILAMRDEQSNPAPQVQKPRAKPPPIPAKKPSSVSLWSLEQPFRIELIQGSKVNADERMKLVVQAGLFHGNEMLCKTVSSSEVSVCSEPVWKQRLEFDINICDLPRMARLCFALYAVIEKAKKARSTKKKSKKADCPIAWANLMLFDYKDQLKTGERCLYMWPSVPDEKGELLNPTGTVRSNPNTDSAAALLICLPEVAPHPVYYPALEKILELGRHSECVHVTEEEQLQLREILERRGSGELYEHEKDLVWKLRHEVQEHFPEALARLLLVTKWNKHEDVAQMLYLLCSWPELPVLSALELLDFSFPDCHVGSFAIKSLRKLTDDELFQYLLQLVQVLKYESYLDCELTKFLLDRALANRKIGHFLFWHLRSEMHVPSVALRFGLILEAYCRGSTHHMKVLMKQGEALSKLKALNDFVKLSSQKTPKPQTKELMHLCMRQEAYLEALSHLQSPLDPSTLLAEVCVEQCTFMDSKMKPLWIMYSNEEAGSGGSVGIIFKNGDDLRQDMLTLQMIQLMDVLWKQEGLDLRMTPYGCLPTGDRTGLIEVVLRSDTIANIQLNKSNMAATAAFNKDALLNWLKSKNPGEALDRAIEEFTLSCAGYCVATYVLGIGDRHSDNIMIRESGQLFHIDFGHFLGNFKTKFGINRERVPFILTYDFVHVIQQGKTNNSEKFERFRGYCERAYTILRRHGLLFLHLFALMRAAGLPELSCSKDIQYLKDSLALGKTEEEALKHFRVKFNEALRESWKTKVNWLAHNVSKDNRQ
Briefly: Inhibition of PI3Kdelta (unknown origin) using PIP2 as substrate pretreated for 15 mins followed by substrate addition measured after 1 hr.

In assay [6] the target is Serine/threonine-protein kinase pim-1 (Homo sapiens, UniProt P11309). Briefly: Inhibition of PIM1 (unknown origin) using TAMRA-ERMRPRKRQGSVRRRV-NH2 as substrate pretreated for 30 mins followed by substrate addition measured after 1 hr by IMAP assay.
Serine/threonine-protein kinase pim-1, sequence (P11309 whole entry): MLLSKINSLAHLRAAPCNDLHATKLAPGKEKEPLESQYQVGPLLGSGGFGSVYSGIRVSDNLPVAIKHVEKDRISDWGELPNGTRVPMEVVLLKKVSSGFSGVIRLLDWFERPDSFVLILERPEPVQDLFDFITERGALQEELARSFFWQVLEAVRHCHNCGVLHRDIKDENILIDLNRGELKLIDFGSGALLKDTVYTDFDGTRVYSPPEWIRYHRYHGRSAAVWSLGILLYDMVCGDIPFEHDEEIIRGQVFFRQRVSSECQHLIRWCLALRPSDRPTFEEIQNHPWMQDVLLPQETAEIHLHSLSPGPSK
Assay [7] has as its target T1, Glycogen synthase kinase-3 beta. Briefly: Inhibition of human GSK3beta using YRRAAVPPSPSLSRHSSPHQ(pS)EDEEE as substrate in presence of [gamma-33P]-ATP.
The species named for a further assay is Homo sapiens. Briefly: Selectivity ratio of pIC50 for ALK5 (unknown origin) to pIC50 for PI3Kdelta (unknown origin).

A value given as a limit tells only on which side of the number the result lay.

Phosphatidylinositol 4,5-bisphosphate 3-kinase catalytic subunit beta isoform, sequence (P42338 whole entry, canonical isoform): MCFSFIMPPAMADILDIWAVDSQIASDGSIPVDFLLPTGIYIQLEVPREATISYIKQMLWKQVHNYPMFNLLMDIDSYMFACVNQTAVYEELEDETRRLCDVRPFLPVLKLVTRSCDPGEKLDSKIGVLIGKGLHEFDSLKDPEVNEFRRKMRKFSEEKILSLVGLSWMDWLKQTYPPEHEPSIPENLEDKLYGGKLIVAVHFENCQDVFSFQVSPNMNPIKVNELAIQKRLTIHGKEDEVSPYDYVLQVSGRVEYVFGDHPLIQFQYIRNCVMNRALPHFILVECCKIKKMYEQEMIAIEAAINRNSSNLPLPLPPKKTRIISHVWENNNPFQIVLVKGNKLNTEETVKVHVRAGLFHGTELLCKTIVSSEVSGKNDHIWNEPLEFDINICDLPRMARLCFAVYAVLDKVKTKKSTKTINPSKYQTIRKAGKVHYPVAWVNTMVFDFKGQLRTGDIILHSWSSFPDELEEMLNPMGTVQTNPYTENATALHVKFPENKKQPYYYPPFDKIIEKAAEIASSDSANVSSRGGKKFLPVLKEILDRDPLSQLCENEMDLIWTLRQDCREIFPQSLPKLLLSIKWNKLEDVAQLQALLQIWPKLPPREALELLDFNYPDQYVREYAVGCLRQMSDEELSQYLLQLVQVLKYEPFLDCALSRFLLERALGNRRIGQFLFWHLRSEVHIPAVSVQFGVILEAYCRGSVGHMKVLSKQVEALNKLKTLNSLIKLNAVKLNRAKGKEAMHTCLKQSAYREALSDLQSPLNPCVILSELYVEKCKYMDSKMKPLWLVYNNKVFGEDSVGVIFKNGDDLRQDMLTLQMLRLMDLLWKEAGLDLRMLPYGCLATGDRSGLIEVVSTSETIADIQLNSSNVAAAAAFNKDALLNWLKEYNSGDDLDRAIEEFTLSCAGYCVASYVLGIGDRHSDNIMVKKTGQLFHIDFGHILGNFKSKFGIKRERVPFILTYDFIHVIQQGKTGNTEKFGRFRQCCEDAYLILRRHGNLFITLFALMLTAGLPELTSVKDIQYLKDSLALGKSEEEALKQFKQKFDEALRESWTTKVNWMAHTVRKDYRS
Phosphatidylinositol 4,5-bisphosphate 3-kinase catalytic subunit alpha isoform, sequence (P42336 whole entry, canonical isoform): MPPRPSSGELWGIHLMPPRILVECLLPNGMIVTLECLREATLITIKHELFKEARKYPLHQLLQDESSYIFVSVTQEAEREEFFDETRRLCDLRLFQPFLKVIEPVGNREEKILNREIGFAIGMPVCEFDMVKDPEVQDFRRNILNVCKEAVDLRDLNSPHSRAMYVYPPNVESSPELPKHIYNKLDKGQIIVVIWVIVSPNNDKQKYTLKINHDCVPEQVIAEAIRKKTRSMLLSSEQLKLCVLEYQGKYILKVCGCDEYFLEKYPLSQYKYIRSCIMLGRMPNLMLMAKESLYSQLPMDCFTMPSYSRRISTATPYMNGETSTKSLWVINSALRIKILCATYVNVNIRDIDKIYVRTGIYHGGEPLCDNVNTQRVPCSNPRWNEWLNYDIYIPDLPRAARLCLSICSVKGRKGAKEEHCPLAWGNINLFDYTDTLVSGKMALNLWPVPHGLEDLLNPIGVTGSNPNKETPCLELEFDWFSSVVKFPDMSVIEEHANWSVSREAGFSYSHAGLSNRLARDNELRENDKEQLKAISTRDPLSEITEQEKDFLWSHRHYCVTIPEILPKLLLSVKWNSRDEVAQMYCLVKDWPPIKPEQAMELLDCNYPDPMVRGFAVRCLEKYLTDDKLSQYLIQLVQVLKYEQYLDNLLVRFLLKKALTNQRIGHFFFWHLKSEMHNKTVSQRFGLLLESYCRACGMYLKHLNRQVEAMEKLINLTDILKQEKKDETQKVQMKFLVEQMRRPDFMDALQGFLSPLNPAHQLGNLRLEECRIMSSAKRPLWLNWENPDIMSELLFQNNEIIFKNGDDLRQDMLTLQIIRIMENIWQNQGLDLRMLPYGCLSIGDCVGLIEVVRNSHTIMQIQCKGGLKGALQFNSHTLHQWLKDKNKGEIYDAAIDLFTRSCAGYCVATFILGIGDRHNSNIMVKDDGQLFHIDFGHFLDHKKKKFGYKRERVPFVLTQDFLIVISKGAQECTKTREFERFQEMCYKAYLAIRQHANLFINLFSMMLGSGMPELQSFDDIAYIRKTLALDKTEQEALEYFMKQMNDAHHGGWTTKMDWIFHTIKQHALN

Consider `O=C(Nc1cc(-c2ccc3cc[nH]c3c2)cc2[nH]ncc12)c1ccccn1`, for which the IC50 (commonly the concentration that gives 50% inhibition) in assay [1] was 25.1 µM; in assay [2], 12.6 µM; in assay [3], greater than 25.1 µM; in assay [4], 15.8 µM; in assay [5], 3.16 µM.
As for `O=C(Nc1n[nH]c2cc(-c3ccc(O)cc3)ccc12)C1CC1`, the 50% inhibitory concentration (IC50) in assay [1] is greater than 25.1 µM; in assay [2] it was greater than 25.1 µM; in assay [4], greater than 25.1 µM; in assay [5] it was 25.1 µM.
For `O=C(Nc1cc(-c2cccc(O)c2)cc2[nH]ncc12)c1ccccn1`, the half-inhibitory concentration (IC50) in assay [1] is 25.1 µM; in assay [2] it was 31.6 µM; in assay [3], 1.58 µM; in assay [4] it was 7.94 µM; in assay [5] it was 1.58 µM; in assay [6], 2 µM.
For the compound `O=C(Nc1cc(-c2ccc(O)cc2)cc2[nH]ncc12)C1CC1`, the 50% inhibitory concentration (IC50) was 25.1 µM in assay [1]; 25.1 µM in assay [2]; 0.631 µM in assay [3]; greater than 25.1 µM in assay [4]; 6.31 µM in assay [5]; 0.316 µM in assay [6].
As for `O=C(Nc1cc(-c2ccc(O)cc2)cc2[nH]ncc12)c1ccccn1`, the IC50 is greater than 25.1 µM in assay [1]; greater than 25.1 µM in assay [2]; 5.01 µM in assay [4]; 1.58 µM in assay [7]; 0.501 µM in assay [5]; 0.126 µM in assay [6].
Regarding `O=C(Nc1cc(-c2cccc(O)c2)cc2[nH]ncc12)C1CC1`, the IC50 in assay [1] is 20 µM; in assay [2] it was 20 µM; in assay [3] it was 1.26 µM; in assay [4], 7.94 µM; in assay [5], 3.98 µM; in assay [6], 2.51 µM.
`O=C(Nc1cc(-c2ccccc2)cc2[nH]ncc12)C1CC1`: the 50% inhibitory concentration (IC50) in assay [1] is 25.1 µM; in assay [2] it was greater than 25.1 µM; in assay [3], 31.6 µM; in assay [4] it was 25.1 µM; in assay [5], 20 µM; in assay [6], 15.8 µM.
As for `O=C(Nc1cc(-c2cccc3[nH]ccc23)cc2[nH]ncc12)C1CC1`, the IC50 was greater than 25.1 µM in assay [1]; 25.1 µM in assay [2]; 7.94 µM in assay [3]; greater than 25.1 µM in assay [4]; 1 µM in assay [5]; 15.8 µM in assay [6].
Consider `O=C(Nc1cc(-c2cccc3[nH]ccc23)cc2[nH]ncc12)c1ccccn1`, for which the IC50 in assay [3] was 3.16 µM; in assay [7], 20 µM; in assay [6], 2.51 µM. In addition, the Ratio IC50 in the assay listed under Homo sapiens was less than 10.
